Assay results: PubChem BioAssay (NCI)
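Cells were grown in 96-well plates and exposed to each compound for 48 hours at five concentrations; endpoints were interpolated linearly between bracketing concentrations, or set to the highest concentration if not reached. TGI marks complete inhibition of growth.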 Where a SMILES comes first, the peptide text is derived from it. Bridges are numbered along the chain shown (N, C = ends). [ ]: non-standard residue; d: D form. Aib = CC(C)(N)C(=O)O; βAla = NCCC(=O)O

Assays:
Test in all cases: NCI tumour cell line growth inhibition, 48 h
[1] = system: SK-MEL-5 melanoma
[2] = system: OVCAR-8 ovarian
[3] = system: SK-MEL-28 melanoma
[4] = system: SF-539 CNS
[5] = system: OVCAR-5 ovarian
[6] = system: OVCAR-3 ovarian
[7] = system: HOP-92 NSCLC
[8] = system: MALME-3M melanoma
[9] = system: NCI-H226 lung
[10] = system: NCI-H522 lung
[11] = system: HCC-2998 colon
[12] = system: SF-268 CNS
[13] = system: NCI/ADR-RES ovarian
[14] = system: MDA-MB-231 breast
[15] = system: MDA-N

Row | Structure (SMILES) | TGI [1] [µM] | TGI [2] [µM] | TGI [3] [µM] | TGI [4] [µM] | TGI [5] [µM] | TGI [6] [µM] | TGI [7] [µM] | TGI [8] [µM] | TGI [9] [µM] | TGI [10] [µM] | TGI [11] [µM] | TGI [12] [µM] | TGI [13] [µM] | TGI [14] [µM] | TGI [15] [µM]
1 | Cc1nc2sccn2c1C(=O)NN | > 100 | > 100 | > 100 | > 100 | > 100 | > 100 | > 100 | > 100 | > 100 | > 100 | > 100 | > 100 | – | – | –
2 | COc1cc(C2C(Cl)C(=O)N2NC(=O)Cc2ccccc2)cc(Br)c1O (centres undefined) | > 100 | > 100 | > 100 | – | > 100 | > 100 | – | > 100 | > 100 | > 100 | > 100 | > 100 | – | – | –
3 | CC1=NN(c2nc(N)nc(CN3CCOCC3)n2)C(C)(C)C1 | > 100 | > 100 | > 100 | > 100 | > 100 | > 100 | > 100 | – | > 100 | 29.1 | > 100 | > 100 | > 100 | > 100 | –
4 | CC1(C)NC(=O)C(NC(=O)C(N)CC(=O)O)CCCCNC(=O)CCNC1=O (centres undefined) (H-DK[Aib][βAla]; lactam 2-C; configuration not given here) | > 100 | > 100 | > 100 | > 100 | > 100 | > 100 | > 100 | > 100 | > 100 | > 100 | – | > 100 | > 100 | > 100 | > 100
5 | CC(=O)OC[C@H]1CN(OC(C)=O)C[C@@H](n2cc(C)c(=O)[nH]c2=O)O1 | > 100 | > 100 | > 100 | > 100 | > 100 | – | – | – | > 100 | – | > 100 | > 100 | – | > 100 | > 100
6 | N#CC12C(=O)NC(=O)C1(C#N)C1C=CC2CC1 (centres undefined) | > 100 | > 100 | > 100 | > 100 | > 100 | > 100 | – | > 100 | > 100 | > 100 | – | > 100 | > 100 | – | > 100
7 | C=CC(=O)Nc1ccc(NC(=O)C=C)c2c1C(=O)c1ccccc1C2=O | > 100 | > 100 | > 100 | 70.9 | > 100 | > 100 | – | > 100 | – | 34.6 | > 100 | – | > 100 | > 100 | > 100
8 | CC(/C=C/C(=O)NO)=C\C(C)C(=O)c1ccc(N(C)C)cc1 (centres undefined) | 0.187 | 41.6 | 14.8 | 2.04 | 4.6 | – | 0.388 | 0.0239 | 12.9 | < 0.0129 | < 0.0113 | 0.195 | – | 0.0538 | 11.5
9 | CC(=O)Nc1ccc2c3c(cc(O)c2c1)N(C(=O)CCCC(=O)N1CC(CCl)c2c1cc(O)c1cc(NC(C)=O)ccc21)CC3CCl (centres undefined) | – | > 100 | > 100 | 0.0964 | 0.276 | 0.0262 | – | 0.0318 | – | 0.0212 | – | – | > 100 | < 0.01 | –
10 | CCOC(=O)c1cc(C2CCN(c3ccccc3)C2=O)c(/C(O)=C/C(C)=O)[nH]1 (centres undefined) | > 100 | > 100 | > 100 | 31.9 | > 100 | > 100 | – | > 100 | > 100 | > 100 | > 100 | > 100 | > 100 | > 100 | > 100
11 | O=c1ccc2ccc(OP(=O)(O)O)cc2o1 | > 100 | > 100 | > 100 | > 100 | > 100 | > 100 | – | > 100 | > 100 | > 100 | > 100 | > 100 | > 100 | > 100 | > 100
12 | CSc1ncnc2c1ncn2CCC(=O)O | > 100 | > 100 | > 100 | > 100 | > 100 | > 100 | > 100 | > 100 | > 100 | > 100 | – | > 100 | > 100 | > 100 | > 100
13 | COc1ccc(C(c2ccccc2)(c2ccc(OC)cc2)N2C(=O)NC3C(CCCCC(=O)NCCCCCCOP(OCCC#N)N(C(C)C)C(C)C)SCC32)cc1 (centres undefined) | 31 | 90.6 | 29 | 28.1 | – | 28.1 | 35 | 33.5 | 30.4 | 27.3 | 31.6 | 30.6 | – | – | –
14 | O=C1/C(=C\c2ccc(Cl)cc2)N=C(c2ccccc2)N1n1c(=O)cn[nH]c1=S | 55.3 | 45.8 | > 100 | > 100 | > 100 | 76.2 | – | > 100 | – | 37.2 | > 100 | – | > 100 | – | > 100
15 | C=CCOC(=O)CC[C@H](NC(=O)[C@@H](CCC(F)(F)F)Cc1ccc(O)cc1)C(=O)OCC=C | 35 | > 100 | 45.6 | > 100 | > 100 | – | > 100 | 39.1 | > 100 | 52.7 | – | > 100 | > 100 | – | > 100
16 | CN1C(=O)C2(C)SC1(c1ccccc1)C1C(=O)N(c3ccccc3)C(=O)C12 (centres undefined) | > 100 | > 100 | > 100 | > 100 | > 100 | > 100 | > 100 | > 100 | > 100 | > 100 | – | > 100 | > 100 | > 100 | > 100
17 | C=C(C)C12CC3CC(/C(=N/O)C(C1)/C3=N\O)[C@@]2(C)O (some centres undefined) | > 100 | > 100 | > 100 | > 100 | > 100 | > 100 | – | > 100 | > 100 | > 100 | > 100 | > 100 | – | – | –
18 | C=CCN(c1cc(OC)c(NC(C)=O)cc1[N+](=O)[O-])S(C)(=O)=O | > 100 | > 100 | > 100 | – | > 100 | > 100 | – | 68.5 | > 100 | 12.5 | > 100 | > 100 | > 100 | > 100 | > 100
